Assay results taken from patent US9375411B2, “Uses and methods for the treatment of liver diseases or conditions” (Verlyx Pharma Inc., priority 2012, dated 2016).
Where “and” joins values, the source holds several entries; their conditions need not be identical. Equal values may be shown once. Read-outs that look alike come from different tables or passages of the source.

Assays:
[1] = Repeated oral administration, tissue concentrations in mice; format: in vivo, Female Fox Chase SCID CB17 Mice
Protocol: In this experiment, mice from all groups were first injected with pentamidine via the IV route on Day 1 (5 mg/kg). Tissue concentrations were assessed 24 hours later (on Day 2), and weekly thereafter (Day 7 and 14) with no subsequent pentamidine administration. Starting on Day 2, groups 2 and 3 were given pentamidine once a day (QD) or twice a day (BID) respectively and tissue levels were measured 24 hours later (Day 3) and weekly thereafter for two weeks.

[2] = Repeat dose oral capsule or intravenous infusion pharmacokinetics in blood; format: in vivo, Male Beagle Dogs; conditions: Beagle dogs, 2-h IV 4 mg/kg/day, Day 1, individual animals and Mean
Protocol: (§1) Pharmacokinetics Study in Male Beagle Dogs. Three oral formulations were tested.
(§2) In this example, the pharmacokinetics and biodistribution are studied in Male Beagle Dogs. The Dog is a relevant model since the elimination rate from the different organs, mainly the liver, are closer to that observed in man. Three oral formulations were tested and compared to the injectable formulation: […]
(§3) The test item dosing formulation was administered once daily as a 2-hour intravenous infusion via the saphenous and/or cephalic vein using an infusion pump, using a temporary peripheral vein catheter attached to a syringe, for 2 consecutive days. The dose volume was 4 mL/kg and the infusion rate was 2 mL/kg/hour for all animals. The actual volume administered to each animal was calculated and adjusted based on the most recent practical body weight of each animal. The catheter was flushed with 0.9% Sodium Chloride for Injection, USP (saline) in order to ensure that the whole intended dose was administered to the animals, after which the temporary catheter was removed and discarded.
(§4) The test item was administered twice daily (targeted time: 12 hours apart) by oral capsule administration for 3 consecutive days to fasted animals (at least 4 hours prior to dosing). Food was returned 2 hours post-dose.
(§5) The number of capsules to be administered to each animal was fixed to 2 capsules/animals/occasion. If needed, following dosing, the oral cavity was rinsed with an appropriate volume of reverse osmosis water to facilitate swallowing. The oral cavity was inspected following dosing to ensure that the capsules have been swallowed.

[3] = Repeat dose oral capsule or intravenous infusion, tissue concentrations and ratios; format: in vivo, Male Beagle Dogs; conditions: Beagle dogs; for Kp / Tmax / AUC(0-t) / Cmax: male, dog
Protocol: as §1, §2, §3, §4, §5
The following tables present the different Pharmacokinetic parameters for IV and PO groups, the concentrations of pentamidine in different tissues and the tissue to blood and tissue to liver concentration ratios.

[4] = Oral bioavailability and biodistribution of pentamidine salts
Protocol: In this experiment, HCl, isethionate and tosylate salts of pentamidine were administered orally to mice and their PK and tissue accumulations were compared.
PK parameters for pentamidine salt following oral administration of 200 mg/kg in mice.
Biodistribution of Pentamidine Salts in mice, 24 hours after PO administration of 200 mg/kg.

[5] = tested on: GalN/LPS-induced liver injury; assay: GalN/LPS fulminant liver injury survival study; format: in vivo; conditions: C57BL/6 mice; IP 30 minutes prior GalN/LPS; PENTAMIDINE 40 mpk, Decamidine 10 mpk
Protocol: In this experiment, the 8-hour survival rate for C57BL/6 mice is evaluated when treated or not with two different aromatic diamidines (pentamidine isethionate(C5) and decamidine isethionate (C10)). Both compounds were administered intraperitoneally at doses close to their MTD 30 minutes prior a GalN/LPS-induced liver injury.

[6] = mice, PO 50 mg/kg
[7] = tested on: chemokines interleukin (IL)-8, GRO alpha and MCP-1; conditions: human whole blood, cited from earlier work
in vivo = conditions: male, Beagle, dog, liver, iv, 4 mg/kg/day
[8] = Repeat dose oral tablet or intravenous infusion, biodistribution and tissue elimination; conditions: Beagle dogs
[9] = IV 5 mg/kg Day 1, then PO QD or BID
[10] = male, Beagle, dog, iv, 4 mg/kg/day
[11] = intravenous dosing, individual animals 1001-1006 and Mean
[12] = summary (group mean), Group 1 IV, Groups 2-4 oral capsules
[13] = mice, 24 hours after PO 200 mg/kg, listed as Penta-Ise, 200 mg/kg
[14] = mice, oral 200 mg/kg, blood, listed as Isethionate salt, 200 mg/kg

Compound: N=C(N)c1ccc(OCCCCCOc2ccc(C(=N)N)cc2)cc1 [pentamidine, pentamidine bis(2-hydroxyethanesulfonate)]
- Kidney levels, effect of oral administration [1, 9]: not affected by oral administration
- liver concentrations under oral administration regimen [1, 9]: can be maintained to a desired concentration
- Kidneys, lung and muscle concentrations, difference between groups with or without PO ([1]; IV 5 mg/kg Day 1, then none, PO QD or PO BID): no significant difference between groups
- AUC % Extrap ([2]; 4 mg/kg/day): 22.12% and 18.04% and 19.13% and 48.74% and 43.8% and 19.89%
- AUCINF ([2]; 4 mg/kg/day): 24.54 µM·h and 35.82 µM·h and 9.09 µM·h and 20.95 µM·h and 35.1 µM·h and 17.89 µM·h
- AUClast ([2]; 4 mg/kg/day): 19.11 µM·h and 29.35 µM·h and 7.35 µM·h and 10.74 µM·h and 19.73 µM·h and 14.33 µM·h
- CL ([2]; 4 mg/kg/day): 8 mL/min/kg and 5.5 mL/min/kg and 21.5 mL/min/kg and 9.33 mL/min/kg and 5.67 mL/min/kg and 11 mL/min/kg
- Cmax ([2]; 4 mg/kg/day): 2.2 µM and 2.16 µM and 1.74 µM and 1.22 µM
- MRTlast ([2]; 4 mg/kg/day): 45.29 h and 65.59 h and 6.36 h and 18.84 h and 30.73 h and 38.14 h
- Tlast ([2]; 4 mg/kg/day): 120 h and 168 h and 24 h and 48 h and 72 h and 96 h
- Tmax ([2]; 4 mg/kg/day): 2 h
- Vz ([2]; 4 mg/kg/day): 26.52 L/kg and 18.59 L/kg and 22.93 L/kg and 32.19 L/kg and 33.41 L/kg
- t1/2 ([2]; 4 mg/kg/day): 35.23 h
- Cmax [2, 10]: 1.43 µM
- half-life [2, 10]: 47 h
- Tmax ([2]; male, Beagle, dog, iv, 4 mg/kg/day, read-out: Tmax): 1 h
- Vd ([2]; male, Beagle, dog, iv, 4 mg/kg/day, read-out: Vz): 32.5 L/kg
- Cmax ([2]; male, dog): 1.04 µM
- Liver AUClast ([3]; IV dosing, Day 1): 27072 µM·h
- Liver Cmax ([3]; IV dosing, Day 1): 210 µM
- Lung AUClast ([3]; IV dosing, Day 1): 1807.2 µM·h
- Lung Cmax ([3]; IV dosing, Day 1): 13.4 µM
- Tissue-to-Liver Lung, based on AUC ([3]; IV, *Based on AUC): 6.67* %
- Tissue-to-Liver Muscle, based on AUC ([3]; IV, *Based on AUC): 2.9* %
- Tissue-to-Liver Skin, based on AUC ([3]; IV, *Based on AUC): 0.87* %
- Concentration Blood [3, 11]: 0.16 μmol/L and 0.07 μmol/L and 0.08 μmol/L (2×) and 0.121 μmol/L and 0.25 μmol/L
- Concentration Brain [3, 11]: 0.80 μmol/L (3×) and 0.70 μmol/L and 0.90 μmol/L and 0.50 μmol/L
- Concentration Heart [3, 11]: 22.30 µM and 13.90 µM and 15.80 µM and 20.20 µM and 10.10 µM and 14.20 µM
- Concentration Kidney [3, 11]: 53.10 µM and 38.30 µM and 48.70 µM and 55.80 µM and 44.80 µM and 39.70 µM
- Concentration Liver [3, 11]: 208 µM and 174 µM and 168 µM and 210 µM and 125 µM and 159 µM
- Concentration Lung [3, 11]: 11.56 µM and 11.52 µM and 13.39 µM and 10.48 µM and 9.80 µM and 11.80 µM
- Concentration Muscle [3, 11]: 5.28 µM and 4.98 µM and 5.29 µM and 6.11 µM and 2.82 µM and 5.56 µM
- Concentration Pancreas [3, 11]: 8.50 µM and 6.00 µM and 8.00 µM and 8.20 µM and 4.60 µM and 7.10 µM
- Concentration Skin [3, 11]: 1.45 μmol/L and 1.23 μmol/L and 1.41 μmol/L and 1.80 μmol/L and 1.63 μmol/L (2×)
- Tissue-to-Liver Brain [3, 12]: 0.46%
- Tissue-to-Liver Heart [3, 12]: 9.66%
- Tissue-to-Liver Kidney [3, 12]: 28.4%
- Tissue-to-Liver Lung [3, 12]: 6.74%
- Tissue-to-Liver Muscle [3, 12]: 2.9%
- Tissue-to-Liver Pancreas [3, 12]: 4.34%
- Tissue-to-Liver Skin [3, 12]: 0.91%
- Kp ([3]; Beagle, brain/blood, intravenous, summary (group mean), Group 1 IV, Groups 2-4 oral capsules, read-out: Tissue-to-blood ratio Brain): 6.19
- Kp ([3]; Beagle, heart/blood, intravenous, summary (group mean), Group 1 IV, Groups 2-4 oral capsules, read-out: Tissue-to-blood ratio Heart): 133
- Kp ([3]; Beagle, kidney/blood, intravenous, summary (group mean), Group 1 IV, Groups 2-4 oral capsules, read-out: Tissue-to-blood ratio Kidney): 386
- Kp ([3]; Beagle, liver/blood, intravenous, summary (group mean), Group 1 IV, Groups 2-4 oral capsules, read-out: Tissue-to-blood ratio Liver): 1690
- Kp ([3]; Beagle, liver/blood, iv, 4 mg/kg/day, IV, *Based on AUC, read-out: Tissue-to-blood ratio Liver, based on AUC): 922
- Kp ([3]; Beagle, lung/blood, intravenous, summary (group mean), Group 1 IV, Groups 2-4 oral capsules, read-out: Tissue-to-blood ratio Lung): 111
- Kp ([3]; Beagle, lung/blood, iv, 4 mg/kg/day, IV, *Based on AUC, read-out: Tissue-to-blood ratio Lung, based on AUC): 61.6
- Kp ([3]; Beagle, muscle/blood, intravenous, summary (group mean), Group 1 IV, Groups 2-4 oral capsules, read-out: Tissue-to-blood ratio Muscle): 48.7
- Kp ([3]; Beagle, muscle/blood, iv, 4 mg/kg/day, IV, *Based on AUC, read-out: Tissue-to-blood ratio Muscle, based on AUC): 8.01
- Kp ([3]; Beagle, pancreas/blood, intravenous, summary (group mean), Group 1 IV, Groups 2-4 oral capsules, read-out: Tissue-to-blood ratio Pancreas): 58.4
- Kp ([3]; Beagle, skin/blood, intravenous, summary (group mean), Group 1 IV, Groups 2-4 oral capsules, read-out: Tissue-to-blood ratio Skin): 14.4
- Kp ([3]; Beagle, skin/blood, iv, 4 mg/kg/day, IV, *Based on AUC, read-out: Tissue-to-blood ratio Skin, based on AUC): 26.8
- Kp ([3]; beagle, brain / blood, iv, intravenous dosing, individual animals and mean, read-out: Tissue-to-blood ratio Brain): 4.13
- Kp ([3]; beagle, kidney / blood, iv, intravenous dosing, individual animals and mean, read-out: Tissue-to-blood ratio Kidney): 370
- Kp ([3]; beagle, pancreas / blood, iv, intravenous dosing, individual animals and mean, read-out: Tissue-to-blood ratio Pancreas): 38
- Tmax ([3]; liver, 4 mg/kg/day, IV dosing, Day 1, read-out: Liver Tmax): 168 h
- Tmax ([3]; lung, 4 mg/kg/day, IV dosing, Day 1, read-out: Lung Tmax): 120 h
- AUC(0-t) ([3]; muscle, 4 mg/kg/day, IV dosing, Day 1, read-out: Muscle AUClast): 786 µM·h
- Cmax ([3]; muscle, 4 mg/kg/day, IV dosing, Day 1, read-out: Muscle Cmax): 6.1 µM
- Tmax ([3]; muscle, 4 mg/kg/day, IV dosing, Day 1, read-out: Muscle Tmax): 168 h
- AUC(0-t) ([3]; skin, 4 mg/kg/day, IV dosing, Day 1, read-out: Skin AUClast): 235 µM·h
- Cmax ([3]; skin, 4 mg/kg/day, IV dosing, Day 1, read-out: Skin Cmax): 1.8 µM
- Tmax ([3]; skin, 4 mg/kg/day, IV dosing, Day 1, read-out: Skin Tmax): 168 h
- Tissue Concentration Kidney [4, 13]: 5.0 µM
- Tissue Concentration Liver [4, 13]: 5.6 µM
- Tissue Concentration Lung [4, 13]: 2.7 µM
- Tissue Concentration Pancreas [4, 13]: 1.3 µM
- F* ([4]; mice, oral 200 mg/kg, based on the iv AUC at 5 mg/kg of 19.08, listed as Isethionate salt): 3.0
- AUCINF [4, 14]: 23.0 µM·h
- Cl/F [4, 14]: 255 mL/min/kg
- Cmax [4, 14]: 3.06 µM
- MRT [4, 14]: 52.8 h
- Tmax [4, 14]: 3.33 h
- t½ [4, 14]: 44.5 h
- AUC ([4]; mouse, in vivo, iv, 5 mg/kg): 19.1 µM·h
- 8-hour survival [5]: 83%
- Liver and kidney levels after PO administration versus blood [6]: several folds that of blood
- muscle concentration after PO administration versus blood [6]: several folds the concentration found in blood
- PHA-induced generation of IL-6 ([7]; 10 microM): partial inhibition
- PHA-induced generation of TNF-alpha, IL-1 beta, IL-2, IL-4, IL-5, IL-10 and IFN-gamma ([7]; 10 microM): no significant inhibitory effect
- LPS- and PHA-stimulated whole blood generation of chemokines IL-8, GRO alpha, MCP-1 [7]: dose-dependently suppress
- half-life (in vivo): ~672 h
- Biodistribution in organs following PO administration ([8]; instant-release tablet): favored the liver
- exposure to the pancreas and kidney, PO versus IV administration ([8]; instant-release tablet PO vs IV, normalized liver concentrations): significantly lower exposure
